US8703812B2, “Protein synthesis required for long-term memory is induced by PKC activation on days preceding associative learning” (Blanchette Rockefeller Neurosciences Institute, priority 2005, dated 2014)
“Also recorded” adds a separate entry of the source.

Key:
PKC [1] = details: cited from earlier work
PKC [2] = experiment: Protein kinase C assay in cultured hippocampal neurons; type: cell-based, Rat
Experimental: Cells were homogenized by sonication (5 sec, 25 W) in 100 μl of 10 mM Tris-HCl pH 7.4 buffer containing 1 mM EGTA, 1 mM PMSF, and 50 mM NaF. Homogenate was transferred to a polyallomer centrifuge tube and was centrifuged at 100,000×g for 10 min at 4°. The supernatant was removed and immediately frozen on dry ice. The particulate fraction was resuspended by sonication in 100 μl of the same buffer and stored at −80°. To measure PKC, 10 μl of cytosol or particulate fraction was incubated for 15 min at 37° in the presence of 10 μM histones, 4.89 mM CaCl2, 1.2 μg/μl phosphatidyl-L-serine, 0.18 μg/μl 1,2-dioctanoyl-sn-glycerol, 10 mM MgCl2, 20 mM HEPES (pH 7.4), 0-8 mM EDTA, 4 mM EGTA, 4% glycerol, 8 μg/ml aprotinin, 8 μg/ml leupeptin, and 2 mM benzamidine. 0.5 μCi [γ^32P]ATP was added and ^32P-phosphoprotein formation was measured by adsorption onto phosphocellulose as described previously (25). This assay was used with slight adjustments for either Hermissenda nervous system homogenates or cultured mammalian neuron homogenates
(§1) Rat hippocampal H19-7/IGF-IR cells (ATCC) were plated onto poly-L-lysine coated plates and grown at 35° in DMEM/10% FCS for several days until approx. 50% coverage was obtained. The cells were then induced to differentiate into a neuronal phenotype by replacing the medium with 5 ml N2 medium containing 10 ng/ml basic fibroblast growth factor and grown in T-25 flasks at 39° C. (26). Various concentrations of bryostatin (0.01-1.0 nM) were then added in 10 μl aqueous solution. After a specified interval, the medium was removed and the cells were washed with PBS, removed by gentle scraping, and collected by centrifugation at 1000 rpm for 5 min.
To further examine biochemical consequences of repeated exposures to bryostatin, rat hippocampal neurons were studied after they had been immortalized by retroviral transduction of temperature sensitive tsA5CSV40 large T antigen (25). These differentiate to have a neuronal phenotype when induced by basic fibroblast growth factor in N2 medium (26) and express a normal complement of neuronal proteins, including PKC.

[3] = in vivo; cited from earlier work
[4] = tested on: Rat hippocampal H19-7/IGF-IR cells; experiment: Protein synthesis by [35S]Methionine incorporation; type: cell-based; details: single 30-minute exposure to 0.28 nM bryostatin
Experimental: FIG. 17 depicts the effects of bryostatin on protein synthesis. Rat IGF-IR cells were incubated for 30 minutes with 0.28 nM bryostatin for incubation times ranging from 1 to 79 hours. [^35S]Methionine (9.1 μCi) was then added to the medium followed by analysis of radiolabel.
as §1
In fact, we found here that a single 30-minute exposure to 0.28 nM bryostatin increased overall protein synthesis (FIG. 17), measured by incorporation of ^35-S Methionine in the last ½ hour before collecting the neurons, by 20% within 24 h, increasing to 60% by 79 hours after the bryostatin exposure.

[5] = single bryostatin 0.28 nM for 30 minutes

## CCC/C=C/C=C/C(=O)O[C@H]1/C(=C/C(=O)OC)C[C@H]2C[C@H]([C@@H](C)O)OC(=O)C[C@H](O)C[C@@H]3C[C@H](OC(C)=O)C(C)(C)[C@](O)(C[C@@H]4C/C(=C/C(=O)OC)C[C@H](/C=C/C(C)(C)[C@]1(O)O2)O4)O3 [bryostatin, bryostatin-1]
PKC [1]
  concentrations that activate PKC: sub-nanomolar
PKC [2]; first 4 hours after single bryostatin exposure
  cytosolic PKC activity: no significant alteration; also recorded: not altered
PKC [2]; second 30-minute exposure after 2- to 4-hour delay
  effect of second exposure on downregulation of membrane-bound PKC: eliminated the significant downregulation; also recorded: significantly attenuates the downregulation
PKC [2]; second bryostatin exposure delayed until 4 hours after the first
  cytosolic PKC activity: increased above baseline
PKC [2]; second bryostatin exposure within 2 hr of the first
  cytosolic PKC activity: significant reduction of PKC activity
PKC [2]; [5]
  membrane-bound PKC after brief translocation: prolonged downregulation
  translocation of PKC from cytosol to particulate fraction: approx 60%
[3]
  rat spatial maze learning: enhanced
[4]; by 79 hours
  increase of overall protein synthesis: 60%
[4]; within 24 h
  increase of overall protein synthesis: 20%
